In PubChem BioAssay AID248 (DTP/NCI, 2004):
Several values for one entry are separate records, joined by “and”; a condition that tells them apart may be missing. Equal entries are not always repeated. Toxic doses and inconclusive results are not listed. Cut-off read from the data, not from the text of the source: active = T/C of 150% or more; inactive = T/C below 125%.

Test system: L1210 leukemia ip in BDF1 mice, survival T/C
Assay: NCI In Vivo Anticancer Drug Screen. Data for tumor model L1210 Leukemia (intraperitoneal) in B6D2F1 (BDF1) mice
Conditions: endpoint: mean survival time, higher = longer survival
Summary of the method: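 Value reflects the ratio of survival in compound-treated mice to survival in vehicle-treated controls, with both groups carrying the same transplanted tumor.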

[1] = dose: 100.0 mg/kg/injection, schedule: Q01DX009 (ip), vehicle: saline with Tween-80
[2] = dose: 100.0 mg/kg/injection, schedule: Q04DX003 (ip), vehicle: saline with Tween-80
[3] = dose: 200.0 mg/kg/injection, schedule: Q01DX009 (ip), vehicle: saline with Tween-80
[4] = dose: 200.0 mg/kg/injection, schedule: Q04DX003 (ip), vehicle: saline with Tween-80
[5] = dose: 400.0 mg/kg/injection, schedule: Q01DX009 (ip), vehicle: saline with Tween-80
[6] = dose: 400.0 mg/kg/injection, schedule: Q04DX003 (ip), vehicle: saline with Tween-80
[7] = dose: 100.0 mg/kg/injection, schedule: Q01DX001 (ip), vehicle: Klucel (hydroxypropylcellulose) (HPC)
[8] = dose: 200.0 mg/kg/injection, schedule: Q01DX001 (ip), vehicle: Klucel (hydroxypropylcellulose) (HPC)
[9] = dose: 400.0 mg/kg/injection, schedule: Q01DX001 (ip), vehicle: Klucel (hydroxypropylcellulose) (HPC)
[10] = dose: 100.0 mg/kg/injection, schedule: Q01DX009 (ip), vehicle: Klucel (hydroxypropylcellulose) (HPC)
[11] = dose: 100.0 mg/kg/injection, schedule: Q04DX003 (ip), vehicle: Klucel (hydroxypropylcellulose) (HPC)
[12] = dose: 200.0 mg/kg/injection, schedule: Q01DX009 (ip), vehicle: Klucel (hydroxypropylcellulose) (HPC)
[13] = dose: 200.0 mg/kg/injection, schedule: Q04DX003 (ip), vehicle: Klucel (hydroxypropylcellulose) (HPC)
[14] = dose: 400.0 mg/kg/injection, schedule: Q01DX009 (ip), vehicle: Klucel (hydroxypropylcellulose) (HPC)
[15] = dose: 400.0 mg/kg/injection, schedule: Q04DX003 (ip), vehicle: Klucel (hydroxypropylcellulose) (HPC)
[16] = dose: 100.0 mg/kg/injection, schedule: Q04DX003 (ip), vehicle: saline
[17] = dose: 200.0 mg/kg/injection, schedule: Q04DX003 (ip), vehicle: saline
[18] = dose: 400.0 mg/kg/injection, schedule: Q04DX003 (ip), vehicle: saline
[19] = dose: 50.0 mg/kg/injection, schedule: Q01DX009 (ip), vehicle: saline
[20] = dose: 100.0 mg/kg/injection, schedule: Q01DX009 (ip), vehicle: saline
[21] = dose: 200.0 mg/kg/injection, schedule: Q01DX009 (ip), vehicle: saline
[22] = dose: 50.0 mg/kg/injection, schedule: Q01DX009 (ip), vehicle: saline with Tween-80

Measured: T/C

CC(C)(C)C1=CC(=O)C=CC1=O
inactive: dose: 50.0 mg/kg/injection, schedule: Q01DX009 (ip), vehicle: water 93 % of control | dose: 100.0 mg/kg/injection, schedule: Q01DX001 (ip), vehicle: water 100 % of control | dose: 100.0 mg/kg/injection, schedule: Q01DX009 (ip), vehicle: water 97 % of control | dose: 200.0 mg/kg/injection, schedule: Q01DX001 (ip), vehicle: water 102 % of control

O=[N+]([O-])c1cccnc1Oc1cc(Cl)c(Cl)cc1Cl
inactive: [1] 107 % of control | [2] 102 % of control | [3] 107 % of control | [4] 93 % of control | [5] 100 % of control | [6] 91 % of control

O=C(O)c1ccccc1Nc1ccccc1
inactive: [7] 102 % of control | [8] 102 % of control | [9] 97 % of control

COc1ccc(NC(=O)NCCN(C)c2ccccc2)cc1
inactive: [10] 93 % of control and 90 % of control | dose: 100.0 mg/kg/injection, schedule: Q04DX002 (ip), vehicle: Klucel (hydroxypropylcellulose) (HPC) 96 % of control and 101 % of control and 107 % of control | [11] 98 % of control | [12] 97 % of control and 104 % of control | dose: 200.0 mg/kg/injection, schedule: Q04DX002 (ip), vehicle: Klucel (hydroxypropylcellulose) (HPC) 98 % of control and 100 % of control and 104 % of control | [13] 101 % of control | [14] 100 % of control and 101 % of control | dose: 400.0 mg/kg/injection, schedule: Q04DX002 (ip), vehicle: Klucel (hydroxypropylcellulose) (HPC) 96 % of control and 101 % of control and 103 % of control | [15] 98 % of control

CCN(CC)C(=O)C(Cc1ccc(OC)c(OC)c1)C(Cc1ccc(OC)c(OC)c1)C(=O)O (stereo not drawn)
inactive: [2] 114 % of control | [4] 102 % of control | [6] 105 % of control

Nc1cc(Cl)[nH]c(=O)n1
inactive: dose: 100.0 mg/kg/injection, schedule: Q01DX009 (ip), vehicle: gum acacia 100 % of control | dose: 200.0 mg/kg/injection, schedule: Q01DX009 (ip), vehicle: gum acacia 89 % of control

S=C=Nc1cccc(Cl)c1
inactive: dose: 75.0 mg/kg/injection, schedule: Q01DX001 (ip), vehicle: saline 100 % of control | dose: 150.0 mg/kg/injection, schedule: Q01DX001 (ip), vehicle: saline 96 % of control

CCCCCCCCCCCCCCCCC(=O)CC
inactive: [11] 96 % of control | [13] 91 % of control | [15] 92 % of control

CCCCCCCC/C=C\CCCCCCCC(=O)OCCCCCCCCCCCCC
inactive: dose: 100.0 mg/kg/injection, schedule: Q01DX009 (ip), vehicle: saline sonified 91 % of control | dose: 200.0 mg/kg/injection, schedule: Q01DX009 (ip), vehicle: saline sonified 102 % of control | dose: 400.0 mg/kg/injection, schedule: Q01DX009 (ip), vehicle: saline sonified 93 % of control

CCC(=O)Nc1ccc(F)cc1
inactive: [7] 105 % of control | [10] 99 % of control | [11] 94 % of control | [8] 99 % of control | [12] 113 % of control | [13] 94 % of control | [9] 93 % of control | [14] 120 % of control | [15] 105 % of control

C/C(=C\n1ccccc1=N)C(=O)c1ccc(F)cc1
inactive: [11] 96 % of control | [13] 98 % of control | [15] 100 % of control

Cc1ccc(C)c(NC(=O)OCCOc2ccccc2)c1
inactive: [10] 101 % of control | [16] 103 % of control | [12] 90 % of control | [17] 104 % of control | [14] 91 % of control | [18] 101 % of control

Brc1cc(Br)c(I)c(Br)c1
inactive: [1] 102 % of control | [2] 96 % of control | [3] 101 % of control | [4] 108 % of control | [5] 101 % of control | [6] 103 % of control

OCc1nc2nc(Cl)c(Cl)nc2[nH]1
inactive: [19] 93 % of control | [20] 98 % of control | [16] 107 % of control | [21] 95 % of control | [17] 98 % of control | [18] 96 % of control

O=C(CNC(=O)c1ccccc1)N/N=C/c1ccncc1
inactive: dose: 25.0 mg/kg/injection, schedule: Q01DX009 (ip), vehicle: saline with Tween-80 91 % of control | [22] 93 % of control | [1] 86 % of control

O=C(O)c1cc(C(=O)c2ccccn2)c2cccc(C(F)(F)F)c2n1
inactive: dose: 50.0 mg/kg/injection, schedule: Q01DX009 (ip), vehicle: Klucel (hydroxypropylcellulose) (HPC) 98 % of control | [10] 95 % of control | [11] 97 % of control | [12] 93 % of control | [13] 97 % of control

Clc1cc(Cl)c(SSc2cc(Cl)c(Cl)cc2Cl)cc1Cl
inactive: [22] 102 % of control | [1] 98 % of control | [3] 98 % of control

Cc1ccccc1-n1c(C)cc(=O)c(C(=O)Cl)c1C
inactive: dose: 25.0 mg/kg/injection, schedule: Q04DX003 (ip), vehicle: Klucel (hydroxypropylcellulose) (HPC) 95 % of control | dose: 50.0 mg/kg/injection, schedule: Q04DX003 (ip), vehicle: Klucel (hydroxypropylcellulose) (HPC) 95 % of control | dose: 75.0 mg/kg/injection, schedule: Q04DX003 (ip), vehicle: Klucel (hydroxypropylcellulose) (HPC) 97 % of control | [11] 103 % of control | [13] 110 % of control

CCCCCC(O)C(CO)CCCC (stereo not drawn)
inactive: [1] 100 % of control | [3] 95 % of control | [5] 94 % of control

NC(N)=N/N=C/c1ccccc1C(=O)O
inactive: dose: 62.5 mg/kg/injection, schedule: Q01DX Z (ip), vehicle: saline 106 % of control | dose: 125.0 mg/kg/injection, schedule: Q01DX Z (ip), vehicle: saline 106 % of control | dose: 250.0 mg/kg/injection, schedule: Q01DX Z (ip), vehicle: saline 101 % of control | dose: 500.0 mg/kg/injection, schedule: Q01DX Z (ip), vehicle: saline 100 % of control

CN(C)c1nc2ccccc2n1C1OC(CO)C(O)C1O (stereo not drawn)
inactive: dose: 100.0 mg/kg/injection, schedule: Q01DX001 (ip), vehicle: acetone 106 % of control | dose: 200.0 mg/kg/injection, schedule: Q01DX001 (ip), vehicle: acetone 103 % of control | dose: 400.0 mg/kg/injection, schedule: Q01DX001 (ip), vehicle: acetone 97 % of control

COc1ccc(Cl)cc1NC(=O)Nc1ccccc1
inactive: [10] 87 % of control | [11] 99 % of control | [12] 94 % of control | [13] 97 % of control | [14] 89 % of control | [15] 92 % of control

O=C(OCCc1ccccc1)Oc1ccccc1
inactive: [20] 115 % of control | [21] 110 % of control | dose: 400.0 mg/kg/injection, schedule: Q01DX009 (ip), vehicle: saline 103 % of control

CN(C)CCCNc1n[nH]c2cccc(Cl)c12
inactive: [19] 104 % of control | [20] 96 % of control | [21] 104 % of control

CCCCSCc1nc2nc(Cl)c(Cl)nc2[nH]1
inactive: [22] 96 % of control | [1] 98 % of control and 92 % of control | [2] 100 % of control | [3] 112 % of control | [4] 98 % of control | [5] 95 % of control and 96 % of control | [6] 98 % of control

C[Si](C)(CCCC(N)C(=O)O)O[Si](C)(C)CCCC(N)C(=O)O (stereo not drawn)
inactive: [11] 98 % of control | [13] 100 % of control | [15] 98 % of control
